Results from patent publication US6737383B1, “Herbicidal oxadiazolidines” (priority 1999, dated 2004).

What was measured:
[1] = system: pitted morningglory; assay: Test D pitted morningglory; assay type: in vivo, Ipomoea lacunosa; details: Preemergence, 0 to 100 scale
Procedure, shortened: (§1)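 Greenhouse pots, seeds in sandy loam; compounds formulated in non-phytotoxic solvent with surfactant; preemergence treatments went on the soil surface within one day of planting. Injury rated visually 14 to 21 days after application on a 0 (none) to 100 (complete control) scale.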

[2] = system: common groundsel; assay: Test D common groundsel; assay type: in vivo, Senecio vulgaris; details: Preemergence, 0 to 100 scale
Procedure, shortened: as §1

[3] = system: Green foxtail; assay: Test D green foxtail; assay type: in vivo; details: Preemergence, 0 to 100 scale
Procedure, shortened: as §1

[4] = system: Green foxtail; assay: Test D green foxtail; assay type: in vivo
Procedure, shortened: as §1

[5] = system: Spanishneedles; assay: Test D Spanishneedles; assay type: in vivo, Bidens bipinnata; details: Preemergence, 0 to 100 scale
Procedure, shortened: as §1

[6] = system: common ragweed; assay: Test D common ragweed; assay type: in vivo, Ambrosia elatior; details: Preemergence, 0 to 100 scale
Procedure, shortened: as §1

[7] = system: purple nutsedge; assay: Test D purple nutsedge; assay type: in vivo, Cyperus rotundus; details: Preemergence, 0 to 100 scale
Procedure, shortened: as §1

[8] = system: common pursiane; assay: Test D common purslane; assay type: in vivo, Portulaca oleracea; details: Preemergence, 0 to 100 scale
Procedure, shortened: as §1

[9] = system: large crabgrass; assay: Test D large crabgrass; assay type: in vivo, Digitaria sanguinalis; details: Preemergence, 0 to 100 scale
Procedure, shortened: as §1

[10] = system: guineagrass; assay: Test D guineagrass; assay type: in vivo, Panicum maximum; details: Preemergence, 0 to 100 scale
Procedure, shortened: as §1

[11] = system: bermuda-grass; assay: Test D bermudagrass; assay type: in vivo, Cynodon dactylon; details: Preemergence, 0 to 100 scale
Procedure, shortened: as §1

[12] = system: surinam grass; assay: Test D surinam grass; assay type: in vivo, Brachiaria decumbens
Procedure, shortened: as §1

[13] = system: dallisgrass; assay: Test D dallisgrass; assay type: in vivo, Paspalum dilatatum; details: Preemergence, 0 to 100 scale
Procedure, shortened: as §1

[14] = system: itchgrass; assay: Test D itchgrass; assay type: in vivo, Rottboellia exaltata; details: Preemergence, 0 to 100 scale
Procedure, shortened: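 Scoring used a 0–100 visual injury scale, with 0 meaning no effect and 100 complete control, assessed 14–21 days after application alongside untreated pots. Preemergence treatments went onto sandy loam surfaces of separately potted seeds within a day of sowing.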

[15] = Rate 16 g/ha, 0 no injury, 100 complete control
[16] = Rate 32 g/ha, 0 no injury, 100 complete control
[17] = Rate 64 g/ha, 0 no injury, 100 complete control
[18] = Rate 125 g/ha, 0 no injury, 100 complete control
[19] = Rate 16 g/ha; Preemergence; 0 to 100 scale, 0 no injury, 100 complete control
[20] = Rate 32 g/ha; Preemergence; 0 to 100 scale, 0 no injury, 100 complete control
[21] = Rate 64 g/ha, Preemergence; 0 to 100 scale, 0 no injury, 100 complete control
[22] = Rate 125 g/ha, Preemergence; 0 to 100 scale, 0 no injury, 100 complete control
[23] = Rate 250 g/ha; Preemergence; 0 to 100 scale
[24] = Rate 500 g/ha, Preemergence; 0 to 100 scale

Structure (SMILES): CC(C)N(C(=O)n1oc(=O)n(Cc2ccccc2)c1=O)c1ccc(F)cc1 [Compound 78]
- Plant response rating, P. morninglory [1, 15]: 0
- Plant response rating, P. morninglory [1, 16]: 0
- Plant response rating, P. morninglory [1, 17]: 0
- Plant response rating, P. morninglory [1, 18]: 0
- Plant response rating, P. morninglory ([1]; Rate 250 g/ha): 0
- Plant response rating, P. morninglory ([1]; Rate 500 g/ha): 0
- Plant response rating, Com. groundsel [2, 15]: 0
- Plant response rating, Com. groundsel [2, 16]: 0
- Plant response rating, Com. groundsel [2, 17]: 0
- Plant response rating, Com. groundsel [2, 18]: 0
- Plant response rating, Com. groundsel ([2]; Rate 250 g/ha): 0
- Plant response rating, Com. groundsel ([2]; Rate 500 g/ha): 0
- Plant response rating, Green foxtail ([3]; Rate 250 g/ha): 100
- Plant response rating, Green foxtail ([3]; Rate 500 g/ha): 100
- Plant response rating, Green foxtail ([4]; Preemergence; Rate 16 g/ha; 0 to 100 scale, 0 no injury, 100 complete control): 0
- Plant response rating, Green foxtail ([4]; Preemergence; Rate 32 g/ha; 0 to 100 scale, 0 no injury, 100 complete control): 75
- Plant response rating, Green foxtail [4, 19]: 0
- Plant response rating, Green foxtail [4, 20]: 75
- Green foxtail plant response rating [4, 21]: 85
- Plant response rating, Green foxtail [4, 21]: 85
- Green foxtail plant response rating [4, 22]: 100
- Plant response rating, Green foxtail [4, 22]: 100
- Plant response rating, Green foxtail [4, 23]: 100
- Plant response rating, Green foxtail [4, 24]: 100
- Plant response rating, Spanishneedles [5, 15]: 0
- Plant response rating, Spanishneedles [5, 16]: 0
- Spanishneedles plant response rating [5, 17]: 0
- Spanishneedles plant response rating [5, 18]: 0
- Plant response rating, Spanishneedles ([5]; Rate 500 g/ha): 0
- Plant response rating, C. ragweed [6, 15]: 0
- Plant response rating, C. ragweed [6, 16]: 0
- Plant response rating, C. ragweed [6, 17]: 0
- Plant response rating, C. ragweed [6, 18]: 0
- Plant response rating, C. ragweed ([6]; Rate 250 g/ha): 0
- Plant response rating, C. ragweed ([6]; Rate 500 g/ha): 0
- Plant response rating, Purple nutsedge [7, 15]: 0
- Plant response rating, Purple nutsedge [7, 16]: 0
- Purple nutsedge plant response rating [7, 17]: 0
- Purple nutsedge plant response rating [7, 18]: 0
- Plant response rating, Purple nutsedge ([7]; Rate 250 g/ha): 0
- Plant response rating, Purple nutsedge ([7]; Rate 500 g/ha): 0
- Plant response rating, C. purslane [8, 15]: 0
- Plant response rating, C. purslane [8, 16]: 0
- Plant response rating, C. purslane [8, 17]: 0
- Plant response rating, C. purslane [8, 18]: 0
- Plant response rating, C. purslane ([8]; Rate 250 g/ha): 0
- Plant response rating, C. purslane ([8]; Rate 500 g/ha): 0
- Plant response rating, Large crabgrass [9, 15]: 0
- Plant response rating, Large crabgrass [9, 16]: 40
- Plant response rating, Large crabgrass [9, 17]: 98
- Plant response rating, Large crabgrass [9, 18]: 100
- Plant response rating, Large crabgrass ([9]; Rate 250 g/ha): 100
- Plant response rating, Large crabgrass ([9]; Rate 500 g/ha): 100
- Plant response rating, Guineagrass [10, 15]: 20
- Plant response rating, Guineagrass [10, 16]: 20
- Plant response rating, Guineagrass [10, 17]: 65
- Plant response rating, Guineagrass [10, 18]: 85
- Plant response rating, Guineagrass ([10]; Rate 250 g/ha): 100
- Plant response rating, Guineagrass ([10]; Rate 500 g/ha): 100
- Plant response rating, Bermudagrass [11, 15]: 75
- Plant response rating, Bermudagrass [11, 16]: 85
- Plant response rating, Bermudagrass [11, 17]: 90
- Plant response rating, Bermudagrass [11, 18]: 98
- Plant response rating, Bermudagrass ([11]; Rate 250 g/ha): 100
- Plant response rating, Bermudagrass ([11]; Rate 500 g/ha): 100
- Plant response rating, Surinam grass [12, 19]: 0
- Plant response rating, Surinam grass [12, 20]: 0
- Surinam grass plant response rating [12, 21]: 20
- Surinam grass plant response rating [12, 22]: 30
- Plant response rating, Surinam grass [12, 23]: 85
- Plant response rating, Surinam grass [12, 24]: 96
- Plant response rating, Surinam grass ([12]; Rate 500 g/ha; Preemergence; 0 to 100 scale): 98
- Plant response rating, Dallisgrass [13, 15]: 0
- Plant response rating, Dallisgrass [13, 16]: 0
- Plant response rating, Dallisgrass [13, 17]: 75
- Plant response rating, Dallisgrass [13, 18]: 100
- Plant response rating, Dallisgrass ([13]; Rate 250 g/ha): 100
- Plant response rating, Dallisgrass ([13]; Rate 500 g/ha): 100
- Plant response rating, Itchgrass [14, 15]: 0
- Plant response rating, Itchgrass [14, 16]: 0
- Plant response rating, Itchgrass [14, 17]: 0
- Plant response rating, Itchgrass [14, 18]: 0
- Plant response rating, Itchgrass ([14]; Rate 250 g/ha): 10
- Plant response rating, Itchgrass ([14]; Rate 500 g/ha): 20
